Experimental data taken from patent publication US20250041247A1, “SMALL MOLECULE INHIBITORS OF REPEAT ASSOCIATED NON-AUG (RAN) TRANSLATION AND COMBINATION THERAPIES” (University of Florida Research Foundation, Incorporated, priority 2021, published 2025).

Columns and labels:
[1] = system: poly-Ala RAN proteins; test: Protein blots for poly-Ala RAN proteins in HEK293T cells transfected with CAG expansion constructs; assay type: cell-based; conditions: treatment with different concentrations of quercetin, or metformin
From the text: cDNA constructs. […] Antibodies. […] Western blotting. […] Quantification and statistical analysis.

[2] = system: C9orf72 ALS/FTD mice (C9); test: DigiGait gait analysis; assay type: in vivo; conditions: 18 week female mice
Procedure: Gait analysis. Digital video images of the underside of the mouse were collected with a high-speed video camera from below the transparent belt of a motorized treadmill (DigiGait™ Imaging system, Mouse Specific). Female C9orf72 ALS/FTD mice (C9) mice and their littermates (non-transgenic mice (NT)) were tested at 18 weeks of age with treatment beginning at 8 weeks of age. Each mouse was allowed to explore the treadmill compartment with the motor speed set to 14 cm/s for 1 min, then the motor speed was increased to 24c m/s for video recording. Only video recordings in which the mouse walked straight ahead with a constant relative position with respect to the camera were used for analysis. Data from each hind paw was analyzed with DigiGait automated gait analysis software (Mouse Specifics). For additional details, see Neuron, 2016, 90(3), 521-34. doi: 10.1016/j.neuron.2016.04.005. Mock treatment is vehicle only, meaning chow without quercetin.

[3] = Quercetin-NT vs Quercetin C9, significance

CN(C)C(=N)NC(=N)N [metformin]
polyAla RAN proteins expressed from (CAG)exp [1]: reduction

O=c1c(O)c(-c2ccc(O)c(O)c2)oc2cc(O)cc(O)c12 [quercetin]
polyAla RAN proteins expressed from (CAG)exp [1]: reduction | 13 gait abnormalities found between C9orf72 ALS/FTD mice (C9) vs. non-transgenic (NT) mice ([2]; DigiGait, treatment beginning at 8 weeks, quercetin in chow): corrected | Absolute PawAngle (deg) [2, 3]: ns | Ataxia Coefficient (real#) [2, 3]: ns | Axis Distance (cm/s) [2, 3]: ns | Brake (s) [2, 3]: ns | BrakeStance (%) [2, 3]: ns | BrakeStride (%) [2, 3]: ns | Gait Symmetry (real#) [2, 3]: ns | Hind Limb Shared Stance Time (s) [2, 3]: ns | MAX dA/dT (cm^2/s) [2, 3]: ns | MIN dA/dT (cm^2/s) [2, 3]: ns | Midline Distance (cm) [2, 3]: ns | Overlap Distance (cm) [2, 3]: ns | Paw Angle Variability (deg) [2, 3]: ns | Paw Area Variability at Peak Stance in sq. cm (cm^2) [2, 3]: ns | Paw Area at Peak Stance in sq. cm (cm^2) [2, 3]: ns | Paw Drag (real#) [2, 3]: ns | PawAngle (deg) [2, 3]: ns | PawPlacementPositioning[PPP] (cm) [2, 3]: ns | Propel (s) [2, 3]: ns | PropelStance (%) [2, 3]: ns | PropelStride (%) [2, 3]: ns | SLVar (cm) [2, 3]: ns | SWVar (cm) [2, 3]: ns | Shared Stance (%) [2, 3]: ns | Stance (s) [2, 3]: ns | Stance/Swing (real#) [2, 3]: ns | StanceFactor (real#) [2, 3]: ns | StanceStride (%) [2, 3]: ns | StanceWidth (cm) [2, 3]: ns | StepAngle (deg) [2, 3]: ns | StepAngle Var (deg) [2, 3]: ns | Steps (real#) [2, 3]: ns | Stride (s) [2, 3]: ns | Stride Frequency (steps/s) [2, 3]: ns | StrideLength (cm) [2, 3]: ns | Swing (%) [2, 3]: ns | SwingStride (%) [2, 3]: ns | Tau - Propulsion (real#) [2, 3]: ns
